{
  "source": "paper PMC4828312",
  "about": "(Journal of neurochemistry, 2016)",
  "key": {"CXCR4": {"tested_on": "CXCR4", "conditions": "cited from earlier work"}, "tubulin dimer": {"biological_target": "tubulin dimer", "assay": "Surface plasmon resonance", "format": "binding, Porcine", "conditions": "peptides injected at 10 nM – 500 µM; three independent experiments; Fig. 2D"}, "[1]": {"biological_target": "assembled MTs (containing ~25% of TUBB3)", "assay": "Surface plasmon resonance", "format": "binding, Porcine", "conditions": "peptides injected at 10 nM – 500 µM; three independent experiments; Fig. 2D"}, "cortical neurons [2]": {"tested_on": "cortical neurons", "assay": "Length of neuronal processes", "format": "cell-based, rat", "conditions": "gp120s (all 5 nM) in combination with Helix-A peptide or Helix-A nano (5 µM each), 24 hr; three independent experiments"}, "primary cortical neurons": {"tested_on": "primary cortical neurons", "assay": "Cell viability, Hoechst/PI co-staining", "format": "cell-based, rat", "conditions": "gp120s in combination with Helix-A nano or Helix-A peptide, 24 hr; three separate experiments, n=200 neurons each group; Fig. 6A"}, "cortical neurons [3]": {"tested_on": "cortical neurons", "assay": "LDH release", "format": "cell-based, rat", "conditions": "gp120s in combination with Helix-A nano or Helix-A peptide, 24 hr; three separate experiments; Fig. 6B"}, "recombinant TUBB3": {"biological_target": "recombinant TUBB3 (Homo sapiens, UniProt Q13509)", "sequence (Q13509 whole entry)": "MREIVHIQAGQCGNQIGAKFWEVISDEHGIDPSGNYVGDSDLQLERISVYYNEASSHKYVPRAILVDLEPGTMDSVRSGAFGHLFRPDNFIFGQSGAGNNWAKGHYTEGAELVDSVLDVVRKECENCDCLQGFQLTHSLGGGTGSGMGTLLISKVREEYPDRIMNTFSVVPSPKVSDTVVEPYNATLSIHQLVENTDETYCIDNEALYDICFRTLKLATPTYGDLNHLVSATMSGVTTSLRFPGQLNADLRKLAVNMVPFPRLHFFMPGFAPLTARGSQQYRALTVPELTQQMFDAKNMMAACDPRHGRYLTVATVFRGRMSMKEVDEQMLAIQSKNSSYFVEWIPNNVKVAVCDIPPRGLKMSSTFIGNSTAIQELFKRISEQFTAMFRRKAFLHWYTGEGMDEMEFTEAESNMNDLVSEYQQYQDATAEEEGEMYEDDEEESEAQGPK", "assay": "Surface plasmon resonance", "format": "binding", "conditions": "peptides injected at 10 nM – 500 µM; three independent experiments; Fig. 2D"}},
  "data": [
    {"compound": "c1cc(CN2CCCNCCNCCCNCC2)ccc1CN1CCCNCCNCCCNCC1", "note": "[AMD3100]", "values": [
      {"measurement": "Internalization of gp120", "setting": "CXCR4; ref Bachis et al. 2003", "result": "bloked"},
      {"measurement": "gp120 toxicity", "setting": "CXCR4; ref Melli et al. 2006, Meucci et al. 1998", "result": "prevents gp120 toxicity"}
    ]},
    {"compound": "NDMVEQMHEDIISLWDQSLK [Helix-A]", "values": [
      {"measurement": "Binding of peptide to tubulin dimer by SPR", "setting": "tubulin dimer", "result": "in the higher micromole range"},
      {"measurement": "Binding of peptide to assembled MTs by SPR", "setting": "[1]", "result": "in the higher micromole range"},
      {"measurement": "Prevention of gp120-mediated neurite pruning", "setting": "cortical neurons [2]", "result": "but not Helix-A peptide prevented the gp120-mediated neurite pruning"},
      {"measurement": "Prevention of gp120-induced neuronal loss, Hoechst/PI staining", "setting": "primary cortical neurons", "result": "but not Helix-A peptide abolished all neurotoxic effects of gp120"},
      {"measurement": "Prevention of gp120-induced neuronal loss, LDH release", "setting": "cortical neurons [3]", "result": "but not Helix-A peptide abolished all neurotoxic effects of gp120"}
    ]},
    {"compound": "RAKWNNTLKQIASK [Helix-B]", "values": [
      {"measurement": "Binding of peptide to TUBB3 by SPR", "setting": "recombinant TUBB3", "result": "but not Helix-B peptide binds to TUBB3"}
    ]}
  ]
}
